± gives the standard deviation of the averaged measurements.
System: SW1353
Test: relative viability vs DMSO control (72 h) (fraction); higher = more viable cells
Summary of the method: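 Densities for seeding sarcoma cell lines into 384-well plates were set to give 80–90% confluence. After 24 h, 2.5 µl of serially diluted compound from source plates of 10 mM to 0.0002 mM went in, and plates stayed 72 h at 37 °C in 5% CO2 with 0.1% DMSO vehicle and a 5 µM positive control. Percent growth from ATPLite readings, averaged over up to triplicate wells, served as relative viability, rescaled so 1 means full and 0 means none.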

SMILES	relative viability (0.00017 µM)	relative viability (0.00051 µM)	relative viability (0.00152 µM)	relative viability (0.00457 µM)	relative viability (0.01372 µM)	relative viability (0.04115 µM)	relative viability (0.1235 µM)	relative viability (0.3704 µM)	relative viability (1.111 µM)	relative viability (3.333 µM)	relative viability (10 µM)
Cc1cc(C)c(/C=C2\C(=O)Nc3ccccc32)[nH]1 [Semaxanib]	0.919 ± 0.019	0.8637 ± 0.004	0.898 ± 0.032	0.897 ± 0.043	0.865 ± 0.022	0.895 ± 0.052	0.892 ± 0.016	0.886 ± 0.017	0.872 ± 0.04	0.818 ± 0.022	0.788 ± 0.032
O=C(Nc1cnn2ccc(N3CCC[C@@H]3c3cc(F)ccc3F)nc12)N1CC[C@H](O)C1 [Larotrectinib]	1.07 ± 0.043	1.07 ± 0.027	1 ± 0.033	1.01 ± 0.057	1.03 ± 0.034	0.954 ± 0.026	0.99 ± 0.025	0.9488 ± 0.0041	0.984 ± 0.053	0.979 ± 0.025	0.921 ± 0.047
C=CC(=O)N1CCC[C@@H](n2nc(-c3ccc(Oc4ccccc4)cc3)c3c(N)ncnc32)C1 [Ibrutinib]	1.03 ± 0.041	1.04 ± 0.028	1 ± 0.032	1.013 ± 0.0014	0.947 ± 0.03	0.945 ± 0.011	0.854 ± 0.05	0.821 ± 0.012	0.746 ± 0.043	0.647 ± 0.014	0.412 ± 0.021
CC(C)N1CCN(Cc2cnc(-c3cc(-c4cccc5[nH]ccc45)cc4[nH]ncc34)o2)CC1 [Nemiralisib]	1.07 ± 0.033	0.997 ± 0.044	0.992 ± 0.023	0.99 ± 0.032	0.983 ± 0.02	0.965 ± 0.043	0.948 ± 0.04	0.914 ± 0.025	0.85 ± 0.053	0.721 ± 0.044	0.59 ± 0.067
CN1CCN(c2ccc3nc(-c4c(N)c5c(F)cccc5[nH]c4=O)[nH]c3c2)CC1 [Dovitinib]	1.08 ± 0.036	1.09 ± 0.015	1.04 ± 0.04	1.07 ± 0.019	1.06 ± 0.014	1.01 ± 0.03	1.01 ± 0.048	0.959 ± 0.036	0.749 ± 0.017	0.53 ± 0.043	0.06 ± 0.0053
COc1c(OCCCN2CCOCC2)ccc2c1N=C(NC(=O)c1cnc(N)nc1)N1CCN=C21 [Copanlisib]	1.08 ± 0.053	1.05 ± 0.054	1.01 ± 0.025	0.917 ± 0.011	0.845 ± 0.033	0.743 ± 0.047	0.635 ± 0.045	0.518 ± 0.011	0.441 ± 0.015	0.412 ± 0.03	0.364 ± 0.017
CNC(=O)c1ccc(-c2cnc3ncc(Cc4ccc5ncccc5c4)n3n2)cc1F [Capmatinib]	0.958 ± 0.038	0.979 ± 0.033	0.973 ± 0.029	0.986 ± 0.063	0.974 ± 0.019	0.964 ± 0.049	1.01 ± 0.036	0.98 ± 0.044	1.05 ± 0.025	1.07 ± 0.011	1.03 ± 0.018
Cn1cc(-c2cc3c(N4CCN(c5ncc([C@@](C)(N)c6ccc(F)cc6)cn5)CC4)ncnn3c2)cn1 [Avapritinib]	0.96 ± 0.072	0.905 ± 0.043	0.894 ± 0.057	0.92 ± 0.012	0.894 ± 0.04	0.883 ± 0.051	0.871 ± 0.036	0.819 ± 0.04	0.819 ± 0.02	0.776 ± 0.03	0.715 ± 0.042
CCCS(=O)(=O)Nc1ccc(F)c(C(=O)c2c[nH]c3ncc(-c4ccc(Cl)cc4)cc23)c1F [Vemurafenib]	0.958 ± 0.033	0.979 ± 0.055	0.965 ± 0.038	0.954 ± 0.052	1.01 ± 0.011	0.993 ± 0.022	0.949 ± 0.032	0.981 ± 0.031	0.925 ± 0.015	0.703 ± 0.024	0.567 ± 0.14
CC1(C)CNc2cc(NC(=O)c3cccnc3NCc3ccncc3)ccc21 [Motesanib]	0.993 ± 0.037	1.01 ± 0.013	1.02 ± 0.011	1 ± 0.018	0.997 ± 0.03	1.01 ± 0.012	0.963 ± 0.031	0.964 ± 0.016	0.977 ± 0.025	0.935 ± 0.023	0.898 ± 0.025
C=CC(=O)Nc1cccc(Oc2nc(Nc3ccc(N4CCN(C)CC4)cc3)nc3ccsc23)c1 [Olmutinib]	1.03 ± 0.048	1.06 ± 0.059	1.04 ± 0.013	1.04 ± 0.048	1.03 ± 0.038	1.02 ± 0.03	0.997 ± 0.031	0.95 ± 0.086	0.857 ± 0.021	0.755 ± 0.012	0.104 ± 0.0062
COc1cc2nccc(Oc3ccc(NC(=O)Nc4cc(C)on4)c(Cl)c3)c2cc1OC [Tivozanib]	0.97 ± 0.029	0.983 ± 0.036	0.965 ± 0.044	0.961 ± 0.064	1.01 ± 0.033	0.988 ± 0.028	1.01 ± 0.021	1.04 ± 0.021	1.05 ± 0.054	0.8973 ± 0.0033	0.582 ± 0.0097
CNC(=O)c1cc(Oc2ccc(NC(=O)Nc3ccc(Cl)c(C(F)(F)F)c3)c(F)c2)ccn1 [Regorafenib]	1.11 ± 0.029	1.05 ± 0.05	1.07 ± 0.017	1.08 ± 0.021	1.04 ± 0.096	1.01 ± 0.043	1.08 ± 0.044	0.996 ± 0.07	0.978 ± 0.047	0.919 ± 0.036	0.555 ± 0.02
Cc1ccc(F)c(NC(=O)Nc2ccc(-c3cccc4[nH]nc(N)c34)cc2)c1 [Linifanib]	1.08 ± 0.035	0.998 ± 0.023	1.02 ± 0.012	1.02 ± 0.015	1 ± 0.036	1.01 ± 0.057	0.982 ± 0.055	1.037 ± 0.009	1.07 ± 0.018	1.07 ± 0.036	0.9638 ± 0.0037
Cc1cnc(Nc2ccc(OCCN3CCCC3)cc2)nc1Nc1cccc(S(=O)(=O)NC(C)(C)C)c1 [Fedratinib]	1.058 ± 0.01	1.02 ± 0.05	1.03 ± 0.038	1.02 ± 0.016	0.987 ± 0.048	1 ± 0.046	0.915 ± 0.018	0.764 ± 0.036	0.533 ± 0.022	0.184 ± 0.0053	0.00437 ± 0.0012
C=CC(=O)N1CCC([C@@H]2CCNc3c(C(N)=O)c(-c4ccc(Oc5ccccc5)cc4)nn32)CC1 [Zanubrutinib]	1.07 ± 0.066	1.05 ± 0.048	1.04 ± 0.034	1.03 ± 0.038	1.03 ± 0.044	1.03 ± 0.044	1.02 ± 0.029	0.965 ± 0.034	0.917 ± 0.057	0.828 ± 0.041	0.657 ± 0.023
CN1CCC(COc2cnc(-c3cccc(Cn4nc(-c5cccc(C#N)c5)ccc4=O)c3)nc2)CC1 [Tepotinib]	1.025 ± 0.0083	1.02 ± 0.015	1.01 ± 0.021	1.01 ± 0.018	0.984 ± 0.028	0.988 ± 0.035	0.951 ± 0.029	0.976 ± 0.039	0.93 ± 0.046	0.977 ± 0.027	0.573 ± 0.17
Cc1nc(NC(=O)N2CCC[C@H]2C(N)=O)sc1-c1ccnc(C(C)(C)C(F)(F)F)c1 [Alpelisib]	1.02 ± 0.034	1 ± 0.024	1.01 ± 0.011	0.973 ± 0.028	0.977 ± 0.072	0.902 ± 0.027	0.9309 ± 0.0035	0.903 ± 0.039	0.819 ± 0.061	0.731 ± 0.024	0.594 ± 0.037

Reference: the supplement of paper PMC10883282
